Assay: molar heat capacity at constant pressure
Conditions: 101 kPa, Liquid, Small sample (50 mg) DSC

CCC(N)(CO)CO [2-amino-2-ethyl-1,3-propanediol]
Conditions | molar heat capacity at constant pressure [J/K/mol]
303.15 K | 367.5
308.15 K | 370.5
313.15 K | 374.1
318.15 K | 378
323.15 K | 381.5
328.15 K | 385.8
333.15 K | 389.9
338.15 K | 393.9
343.15 K | 398.6
348.15 K | 403.1
353.15 K | 408.2

Reference: the NIST ThermoML archive (doi:10.1016/j.fluid.2013.12.017)
